Usually inhibition stands for the relative decrease from the control value, in per cent. As a reminder, the melting point is the temperature, or range, at which the solid turns liquid. Broadly, the IC50 is the point on the concentration scale where inhibition reaches its midpoint.

Where two headings read alike, the source gives them in different places.

The values below come from PMC6270106, “Chemical Constituents from the Leaves of Annona reticulata and Their Inhibitory Effects on NO Production” (Molecules, 2013).

Data set [1] deals with RAW 264.7 cells.
Protocol: (§1) A murine macrophage cell line RAW264.7 (BCRC No. 60001) was purchased from the Bioresources Collection and Research Center (BCRC) of the Food Industry Research and Development Institute (Hsinchu, Taiwan). Cells were cultured in plastic dishes containing Dulbecco’s Modified Eagle Medium (DMEM, Sigma, St. Louis, MO, USA) supplemented with 10% fetal bovine serum (FBS, Sigma, USA) in a CO2 incubator (5% CO2 in air) at 37°C and subcultured every 3 days at a dilution of 1:5 using 0.05% trypsin–0.02% EDTA in Ca^2+-, Mg^2+- free phosphate-buffered saline (DPBS).
(§2) Cells (2 × 10^5) were cultured in 96-well plate containing DMEM supplemented with 10% FBS for 1 day to become nearly confluent. Then cells were cultured with samples in the presence of 100 ng/mL LPS for 24 h. After that, the cells were washed twice with DPBS and incubated with 100 μL of 0.5 mg/mL MTT for 2 h at 37 °C testing for cell viability. The medium was then discarded and 100 μL dimethyl sulfoxide (DMSO) was added. After 30-min incubation, absorbance at 570 nm was read using a microplate reader (Molecular Devices, Sunnyvale, CA, USA).
Data set [2] deals with LPS-induced iNOS-dependent NO production in RAW 264.7 cells. Briefly: Inhibition of LPS-induced iNOS-dependent NO production (Griess nitrite assay). Type of data set: cell-based, murine. Particulars: RAW 264.7, 100 ng/mL LPS, 24 h; for NO level: nitrite by Griess, in µM (unit assumed); for inhibition at 12.5 µM / inhibition at 25 µM / inhibition at 50 µM / inhibition at 100 µM / IC50: Mus musculus, RAW264.7; for inhibition at 12.5 µM: read-out: NO inhibition (% of control); for inhibition at 25 µM / inhibition at 50 µM / inhibition at 100 µM: read-out: NO inhibition (% of control) (converted). The text has this:
The isolated compounds 1–9 were subjected into the examination of their effects on LPS-induced iNOS-dependent NO production in RAW 264.7 cells. […] The inhibitory effects of 1, 4 and 9 were less obvious. […] Among the tested compounds, 2, and 5–8 belonged to the ent-kaurane diterpenoids noted for the occurrence in the Annona species.
NO production was indirectly assessed by measuring the nitrite levels in the cultured media and serum determined by a colorimetric method based on the Griess reaction. The cells were incubated with a test sample in the presence of LPS (100 ng/mL) at 37 °C for 24 h. Then, cells were dispensed into 96-well plates, and 100 μL of each supernatant was mixed with the same volume of Griess reagent (1% sulfanilamide, 0.1% naphthyl ethylenediamine dihydrochloride, and 5% phosphoric acid) and incubated at room temperature for 10 min, the absorbance was measured at 540 nm with a Micro-Reader (Molecular Devices). By using sodium nitrite to generate a standard curve, the concentration of nitrite was measured form absorbance at 540 nm.
Experimental results were presented as the mean ± standard deviation (SD) of three parallel measurements. Statistical comparisons were made by Student’s t-test. IC50 values were estimated using a non-linear regression algorithm (SigmaPlot 8.0; SPSS Inc. Chicago, IL, USA). Statistical significance is expressed as * p < 0.05, ** p < 0.01, and *** p < 0.001.

Data set [3] concerns RAW 264.7 cells. Briefly: Cell viability (MTT) in the presence of LPS. Particulars: RAW 264.7, 100 ng/mL LPS, 24 h; for Cell viability (% of control): MTT; for Cell toxicity (in words): 12.5–100 μM.
Protocol: as §1, §2
The test system of data set [4] is LPS-induced RAW264.7 macrophages. More on the design: method as in PMID 21211951. Particulars: cited from earlier work.
The test system of data set [5] is platelet aggregation. More on the design: method as in PMID 12398544. Particulars: isolated from the stems of A. squamosa; cited from earlier work.

As for `C=C(C)C(CC[C@@H](CO)[C@H]1CC[C@@]2(C)C3CCC4C(C)(C)[C@@H](O)[C@H](O)C[C@@]45C[C@@]35CC[C@]12C)C(C)C` (some centres unmarked) [Compound 1, annonaretin A], the “Cell viability (% of control)” value in data set [1] (12.5 µM) is listed as 88.0 ± 1.5 % of control; in data set [1] (25 µM), 81.2 ± 1.8 % of control; in data set [1] (50 µM), 73.0 ± 3.6 % of control; in data set [1] (100 µM), 66.9 ± 5.5 % of control. Besides, the NO level was determined as 36.6 ± 1.9 in data set [2] (12.5 μM) and 33.5 ± 0.9 in data set [2] (25 μM). Besides, the inhibition at 12.5 µM in data set [2] (12.5 μM) worked out at 19.3 ± 4.2%. Also, in data set [2] (25 μM), the inhibition at 25 µM was 26.2%. The “Inhibitory effect on NO production (in words)” value in data set [2] was “less obvious”.

On to `COc1ccc([C@@H]2CC(=O)c3ccc(OC)cc3O2)cc1` [Compound 9, (2S)-di-O-methylquiritigenin], for which the “Cell viability (% of control)” value in data set [3] (12.5 μM) is reported as 99.9 ± 4.8 % of control; in data set [3] (25 μM) it was 90.0 ± 1.6 % of control; in data set [3] (50 μM), 82.6 ± 2.7 % of control; in data set [3] (100 μM), 76.2 ± 1.1 % of control. For the same molecule, the “Cell toxicity (in words)” value in data set [3] is listed as “Some cell toxicity was observed”. For the same molecule, the NO level in data set [2] (12.5 μM) is recorded as 42.0 ± 1.2; in data set [2] (25 μM), 40.4 ± 0.7; in data set [2] (50 μM) it was 25.9 ± 2.3. The inhibition at 12.5 µM in data set [2] (12.5 μM) stood at 7.5 ± 2.7%. For the same molecule, in data set [2] (25 μM), the inhibition at 25 µM was 11%. In data set [2] (50 μM), the inhibition at 50 µM was 42.9%. For the same molecule, the “Inhibitory effect on NO production (in words)” value in data set [2] is “less obvious”.

On to `CC[C@H](CC[C@@H](C)[C@H]1CC[C@H]2[C@@H]3CC=C4C[C@@H](O)CC[C@]4(C)[C@H]3CC[C@]12C)C(C)C` [Compound 4, β-sitosterol], for which the “Cell viability (% of control)” value in data set [3] (12.5 μM) is 82.8 ± 2.7 % of control; in data set [3] (25 μM) it was 80.7 ± 3.8 % of control; in data set [3] (50 μM), 65.3 ± 2.3 % of control; in data set [3] (100 μM), 55.8 ± 2.7 % of control. The “Cell toxicity (in words)” value in data set [3] is “Some cell toxicity was observed”. Besides, the NO level in data set [2] (12.5 μM) is listed as 38.4 ± 0.7; in data set [2] (25 μM), 38.6 ± 3.3. Besides, the inhibition at 12.5 µM in data set [2] (12.5 μM) was found to be 15.5 ± 1.5%. The inhibition at 25 µM in data set [2] (25 μM) was 15.1%. In addition, the “Inhibitory effect on NO production (in words)” value in data set [2] is on record as “less obvious”.

For `C[C@@]12CCC[C@](C)(C(=O)O)C1CCC13CC(CCC12)C(C(=O)O)C3` (stereo partly drawn) [Compound 8, 16α-hydro-ent-kauran-17,19-dioic acid], the melting point lay in the range of 120 to 121 °C. In addition, in data set [3] (12.5 μM), the “Cell viability (% of control)” value was 98.4 ± 3.2 % of control. Also, in data set [3] (25 μM), the “Cell viability (% of control)” value is on record as 94.0 ± 2.6 % of control. Besides, the “Cell viability (% of control)” value in data set [3] (50 μM) is reported as 88.6 ± 2.6 % of control. The “Cell viability (% of control)” value in data set [3] (100 μM) is on record as 82.4 ± 1.2 % of control. Moreover, in data set [2] (12.5 μM), the NO level is reported as 39.8 ± 1.2 and the inhibition at 12.5 µM came out at 12.3 ± 2.6%. Moreover, in data set [2] (25 μM), the NO level amounted to 35.4 ± 0.8 and the inhibition at 25 µM was 21.9%. Further, in data set [2] (50 μM), the NO level is 23.5 ± 0.9 and the inhibition at 50 µM is 48.2%. For the same molecule, in data set [2] (100 μM), the NO level was determined as 14.4 ± 0.3 and the inhibition at 100 µM is 68.3%. The molecule also showed an IC50 in data set [2] of 54.5 ± 0.8 µM.

`C=C1C[C@@]23CC[C@H]4[C@@](C)(CCC[C@@]4(C)C(=O)O)[C@@H]2CC[C@@H]1C3` [Compound 2, kaurenoic acid]: the “Cell viability (% of control)” value is 98.0 ± 2.2 % of control in data set [3] (12.5 μM), 91.0 ± 3.6 % of control in data set [3] (25 μM), 82.9 ± 1.2 % of control in data set [3] (50 μM) and 65.7 ± 8.6 % of control in data set [3] (100 μM). For the same molecule, the “Cell toxicity (in words)” value in data set [3] was “Some cell toxicity was observed”. In data set [4], the “Inhibition of NO production, prostaglandin E2 release, cyclooxygenase-2 and inducible nitric oxide synthase expression (in words)” value is given as “inhibit NO production”. The NO level is 34.3 ± 4.7 in data set [2] (12.5 μM), 35.1 ± 1.2 in data set [2] (25 μM) and 22.7 ± 0.5 in data set [2] (50 μM). Besides, the inhibition at 12.5 µM in data set [2] (12.5 μM) worked out at 24.5 ± 10.2%. The inhibition at 25 µM in data set [2] (25 μM) was 22.7%. The inhibition at 50 µM in data set [2] (50 μM) is 50%. Besides, it took 50 ± 0.3 µM to reach half-maximal inhibition in data set [2] (IC50).

For the molecule `CC(=O)OCC1CC23CCC4[C@@](C)(CCC[C@]4(C)C(=O)O)C2CCC1C3` (stereo partly drawn) [Compound 7, 17-acetoxy-16β-ent-kauran-19-oic acid], the “Cell viability (% of control)” value is listed as 98.6 ± 3.1 % of control in data set [3] (12.5 μM), 93.6 ± 4.0 % of control in data set [3] (25 μM), 92.5 ± 2.8 % of control in data set [3] (50 μM) and 83.7 ± 1.6 % of control in data set [3] (100 μM). Besides, the NO level was determined as 42.6 ± 0.7 in data set [2] (12.5 μM), 40.6 ± 2.8 in data set [2] (25 μM), 23.7 ± 0.2 in data set [2] (50 μM) and 14.3 ± 0.3 in data set [2] (100 μM). The inhibition at 12.5 µM in data set [2] (12.5 μM) was 6.2 ± 1.5%. In data set [2] (25 μM), the inhibition at 25 µM was 10.6%. The inhibition at 50 µM in data set [2] (50 μM) is 47.7%. Moreover, the inhibition at 100 µM in data set [2] (100 μM) is 68.5%. For the same molecule, it took 55.5 ± 0.3 µM to reach half-maximal inhibition in data set [2] (IC50).

As to `CC[C@H](CC[C@@H](C)[C@H]1CC[C@H]2[C@@H]3C[C@@H](O)C4=CC(=O)CC[C@]4(C)[C@H]3CC[C@]12C)C(C)C` [Compound 6, 6β-hydroxystigmast-4-en-3-one], the “Cell viability (% of control)” value in data set [3] (12.5 μM) is given as 94.8 ± 3.1 % of control; in data set [3] (25 μM), 83.7 ± 3.5 % of control; in data set [3] (50 μM), 83.5 ± 3.0 % of control; in data set [3] (100 μM) it was 81.3 ± 2.8 % of control. The NO level in data set [2] (12.5 μM) turned out to be 37.0 ± 1.8; in data set [2] (25 μM), 33.1 ± 2.4; in data set [2] (50 μM), 22.9 ± 1.1; in data set [2] (100 μM), 15.1 ± 0.3. Also, the inhibition at 12.5 µM in data set [2] (12.5 μM) came out at 18.5 ± 4%. The inhibition at 25 µM in data set [2] (25 μM) was 27.1%. Further, the inhibition at 50 µM in data set [2] (50 μM) is 49.5%. The inhibition at 100 µM in data set [2] (100 μM) is 66.7%. In data set [2], this molecule displayed a concentration for half-maximal inhibition (IC50) of 51.5 ± 0.5 µM.

Turning to `C[C@@]12CCC[C@](C)(C=O)C1CCC13CC(CCC12)C(C(=O)O)C3` (stereo partly drawn) [Compound 5, 16α-hydro-19-al-ent-kauran-17-oic acid], the “Cell viability (% of control)” value is 98.9 ± 5.2 % of control in data set [3] (12.5 μM), 96.5 ± 9.2 % of control in data set [3] (25 μM), 95.9 ± 8.6 % of control in data set [3] (50 μM) and 80.2 ± 5.7 % of control in data set [3] (100 μM). The NO level amounted to 38.3 ± 1.3 in data set [2] (12.5 μM), 33.1 ± 1.0 in data set [2] (25 μM), 22.1 ± 1.5 in data set [2] (50 μM) and 14.8 ± 0.7 in data set [2] (100 μM). Further, the inhibition at 12.5 µM in data set [2] (12.5 μM) stood at 15.5 ± 2.8%. For the same molecule, the inhibition at 25 µM in data set [2] (25 μM) is 27.1%. For the same molecule, the inhibition at 50 µM in data set [2] (50 μM) was 51.4%. Besides, the inhibition at 100 µM in data set [2] (100 μM) is 67.3%. This molecule also gave an IC50 in data set [2] of 48.6 ± 1.2 µM. For the same molecule, in data set [5], the “Anti-platelet aggregation activity (in words)” value was “exhibit anti-platelet aggregation activity”.
